From PubChem BioAssay (NCI) come the findings set out here.

SMILES strings stand for the structures. Values joined by “and” are separate entries in the source; they are usually repeats but may differ in a detail not shown here. Equal values may be shown once.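 The compound was tested at five concentrations on cells cultured in 96-well plates, with a 48-hour exposure period. GI50 marks 50% less growth. TGI: concentration producing complete growth inhibition.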

Holding throughout (experiment): NCI anticancer screen, dose series, 48 h
Test [1] deals with IGROV1 ovarian.
Test [2] deals with SF-539 CNS.
Test [3] relates to NCI-H226 lung.
In test [4] the test system is UO-31 renal.
Test [5] relates to NCI-H23 lung.
The subject of test [6] is HT29 colon.
For test [7], the system named is NCI/ADR-RES ovarian.
The subject of test [8] is MCF7 breast.
Test [9] concerns RPMI-8226 leukemia.
The test system of test [10] is SR leukemia.

Take `O=C(/C=C\n1cnc(-c2cc(C(F)(F)F)cc(C(F)(F)F)c2)n1)NNc1cnccn1`: the GI50 was 0.223 µM in test [1]; 0.0286 µM in test [2]; 0.0384 µM in [3]; 0.12 µM in test [4]; 0.0661 µM in test [5]; 0.131 µM in [6]. The GI50 in test [7] was 0.0933 µM; in test [8], 0.0329 µM; in test [9] it was 0.0449 µM; in test [10], 0.0362 µM. Also, the TGI worked out at 14.8 µM in test [1]; 1.12 µM in test [2]; 3.05 µM in test [3]; 12.8 µM in test [4]; 15.7 µM in test [5]; 22.4 µM in test [6]. Further, the TGI is 27.1 µM in test [7], 11.5 µM in test [8], > 47.3 µM in test [9] and > 100 µM in test [10].
As to `CCCCN1CSC(=S)N(Cc2ccccc2)C1`, the TGI in [1], in test [2], in test [3], in test [4], in test [5] and in test [6] was > 100 µM each time. The TGI in [7] is > 100 µM; in test [8] it was > 100 µM; in test [9], 59 µM; in [10], > 100 µM.
`CON(C)C(=O)N1N=C(c2cc(F)ccc2F)SC1(CCCN)c1ccccc1` (centres undefined): the GI50 is 6.28 µM and 4.85 µM in test [1]; 0.027 µM in [2]; 12 µM and 12.5 µM in test [3]; 3.37 µM and 2.21 µM in test [4]; 0.0936 µM and < 0.01 µM in [5]; 0.0301 µM and < 0.01 µM in test [6]. The GI50 in [7] was 0.544 µM and 0.122 µM; in test [8], < 0.01 µM; in [9], 0.0131 µM and < 0.01 µM; in test [10] it was < 0.01 µM. The TGI in test [1] is 32.2 µM and 27.5 µM; in test [2] it was 0.351 µM; in [3] it was 27.3 µM and 28.3 µM; in test [4], 21.8 µM and 20.5 µM; in [5], 21.9 µM and 14.8 µM; in [6] it was 5.05 µM and 10.8 µM. For the same compound, the TGI was 5.34 µM and 2.87 µM in test [7]; 11.6 µM and 11.5 µM in test [8]; 11 µM and 9.04 µM in [9]; 12.4 µM and 12.6 µM in test [10].
For the compound `COc1cc(NS(=O)(=O)c2ccc(-c3cnc(C4CC4)o3)cc2)ccc1F`, the GI50 is 0.439 µM in test [1]; 0.274 µM in test [2]; 1.24 µM in [3]; 0.581 µM in test [4]; 0.989 µM in test [5]; 0.268 µM in test [6]. Further, the GI50 in test [7] was 0.339 µM; in test [8] it was 0.201 µM; in test [9], 0.457 µM; in [10], 0.102 µM. Also, the TGI in test [1] is 24.6 µM; in test [2], 2.18 µM; in test [3] it was 22.1 µM; in test [4] it was 24.1 µM; in [5] it was 21.4 µM; in test [6] it was 12.5 µM. Moreover, the TGI in test [7] was 10.2 µM; in [8], 22.9 µM; in test [9], 39.5 µM; in test [10], > 100 µM.
Regarding `Cc1ccc2c3c(c(=O)[nH]c2c1)C1(C(C#N)=C(N)O3)c2cc(Br)ccc2-c2ccc(Br)cc21`, the GI50 in test [1] was 1.6 µM; in test [2], 1.73 µM; in test [3], 1.9 µM; in test [4], 1.33 µM; in [5], 2.11 µM; in test [6], 2.25 µM. Further, the GI50 in [7] is 6.82 µM; in test [8], 2.1 µM; in test [9], 4.5 µM; in [10], 2.36 µM. Moreover, the TGI in [1] stood at 3.75 µM; in [2], 3.21 µM; in test [3], 4.6 µM; in [4], 2.74 µM; in test [5], 4.62 µM; in test [6], 6.06 µM. The TGI in test [7] is > 100 µM; in test [8], 5.76 µM; in [9], 23.7 µM; in test [10], 14.5 µM.
On to `COC(=O)c1c(C)[nH]c(/C=C2\N=C(c3ccc[nH]3)C=C2OC)c1C`, for which the GI50 in test [1] is 0.147 µM; in test [2], 0.756 µM; in test [3] it was 1.66 µM; in test [4], 0.113 µM; in test [5] it was 0.483 µM; in [6], 0.0339 µM. Further, the GI50 is 0.109 µM in test [7], 0.413 µM in test [8], 0.856 µM in [9] and 0.0947 µM in test [10]. Also, the TGI in [1] is 1.62 µM; in test [2], 2.29 µM; in [3], 7.92 µM; in [4], 0.28 µM; in test [5] it was 4.55 µM; in test [6] it was > 100 µM. The TGI in test [7] turned out to be 4.6 µM; in [8], 3.12 µM; in [9], 4.98 µM; in test [10] it was 0.679 µM.
With `COc1cc2c3c(n(C)c(=O)c2cc1OC)-c1cc2c(cc1/C3=C\CNCCCN)OCO2`, the GI50 is 0.284 µM in test [1]; 0.834 µM in test [2]; 0.0753 µM in [3]; 6.96 µM in test [4]; 0.437 µM in [5]; 0.376 µM in [6]. The GI50 in [7] was 5.26 µM; in [8] it was 1.04 µM; in test [9], 0.414 µM; in test [10], 0.0203 µM. In addition, the TGI in test [2] is 7.29 µM; in [3], 0.797 µM; in [4] it was > 100 µM; in test [5], 3.15 µM; in [6], > 100 µM; in test [7], > 88.5 µM. Further, the TGI was 16.5 µM in test [8], 2.15 µM in test [9] and 0.618 µM in [10].
Regarding `CCN(CC)CCCC(C)Nc1cnc(C(=O)Nc2cccc3ccc(OC)nc23)cn1` (centres undefined), the GI50 was 2.09 µM in test [1]; 1.79 µM in test [2]; 7.52 µM in test [3]; 1.46 µM in test [4]; 2.44 µM in test [5]; 1.78 µM in test [6]. Further, the GI50 in [7] was 2.62 µM; in test [8], 1.67 µM; in test [9], 2.45 µM; in [10], 2.27 µM. Besides, the TGI in test [1] was determined as 4.91 µM; in [2], 3.21 µM; in test [3], 21.7 µM; in test [4], 2.82 µM; in test [5], 5.63 µM; in [6] it was 3.51 µM. For the same compound, the TGI is 7.95 µM in [7], 3.41 µM in test [8], 6.15 µM in [9] and 7.36 µM in test [10].
